# Laboratory results from patent US10501451B2, “Selective NR2B antagonists” (BRISTOL-MYERS SQUIBB COMPANY, priority 2015, dated 2019).
# Read-outs that look alike come from different tables or passages of the source.
# Target: NR2B-subtype NMDA receptors (Rattus norvegicus (Rat), UniProt P35439+Q00960)
# Assay: Radioligand binding assay (3H Ro 25-6981 competition, rat forebrain membranes)
# Conditions: 3H Ro 25-6981 (4 nM)
# Procedure: Radioligand Binding Assay. Binding experiments to determine binding to NR2B-subtype NMDA receptors were performed on forebrains of 8-10 weeks old male Sprague Dawley rats (Harlan, Netherlands) using ^3H Ro 25-6981 (Mutel V; Buchy D; Klingelschmidt A; Messer J; Bleuel Z; Kemp J A; Richards J G. Journal of Neurochemistry, 1998, 70(5):2147-2155. Rats were decapitated without anesthesia using a Guillotine (approved by animal ethics committee) and the harvested brains were snap-frozen and stored at −80° C. for 3-6 months for membrane preparation.
# For membrane preparation, rat forebrains were thawed on ice for 20 minutes in homogenization buffer composed of 50 mM KH2PO4 (pH adjusted to 7.4 with KOH), 1 mM EDTA, 0.005% Triton X 100 and protease inhibitor cocktail (Sigma Aldrich). Thawed brains were homogenized using a Dounce homogenizer and centrifuged at 48000×g for 20 min. The pellet was resuspended in cold buffer and homogenized again using a Dounce homogenizer. Subsequently, the homogenate was aliquoted, snap-frozen and stored at −80° C. for not more than 3-4 months.
# To perform the competition binding assay, thawed membrane homogenate was added to each well of a 96-well plate (20 μg/well). The experimental compounds were serially diluted in 100% DMSO and added to each row of the assay plate to achieve desired compound concentrations, keeping the DMSO concentration in the assay plate at 1.33% of the final reaction volume. Next, ^3H Ro 25-6981 (4 nM) was added to the assay plate. After incubation for 1 hr at room temperature, the membrane bound radioligand was harvested on to GF/B filter plates (treated with 0.5% PEI for 1 hr at room temperature). The filter plates were dried at 50° C. for 20 mins, incubated with microscint 20 for 10 minutes and finally, the counts were read on TopCount (Perkin Elmer).
# Sequence of NR2B-subtype NMDA receptors (Q00960 27-1482, other chains not shown): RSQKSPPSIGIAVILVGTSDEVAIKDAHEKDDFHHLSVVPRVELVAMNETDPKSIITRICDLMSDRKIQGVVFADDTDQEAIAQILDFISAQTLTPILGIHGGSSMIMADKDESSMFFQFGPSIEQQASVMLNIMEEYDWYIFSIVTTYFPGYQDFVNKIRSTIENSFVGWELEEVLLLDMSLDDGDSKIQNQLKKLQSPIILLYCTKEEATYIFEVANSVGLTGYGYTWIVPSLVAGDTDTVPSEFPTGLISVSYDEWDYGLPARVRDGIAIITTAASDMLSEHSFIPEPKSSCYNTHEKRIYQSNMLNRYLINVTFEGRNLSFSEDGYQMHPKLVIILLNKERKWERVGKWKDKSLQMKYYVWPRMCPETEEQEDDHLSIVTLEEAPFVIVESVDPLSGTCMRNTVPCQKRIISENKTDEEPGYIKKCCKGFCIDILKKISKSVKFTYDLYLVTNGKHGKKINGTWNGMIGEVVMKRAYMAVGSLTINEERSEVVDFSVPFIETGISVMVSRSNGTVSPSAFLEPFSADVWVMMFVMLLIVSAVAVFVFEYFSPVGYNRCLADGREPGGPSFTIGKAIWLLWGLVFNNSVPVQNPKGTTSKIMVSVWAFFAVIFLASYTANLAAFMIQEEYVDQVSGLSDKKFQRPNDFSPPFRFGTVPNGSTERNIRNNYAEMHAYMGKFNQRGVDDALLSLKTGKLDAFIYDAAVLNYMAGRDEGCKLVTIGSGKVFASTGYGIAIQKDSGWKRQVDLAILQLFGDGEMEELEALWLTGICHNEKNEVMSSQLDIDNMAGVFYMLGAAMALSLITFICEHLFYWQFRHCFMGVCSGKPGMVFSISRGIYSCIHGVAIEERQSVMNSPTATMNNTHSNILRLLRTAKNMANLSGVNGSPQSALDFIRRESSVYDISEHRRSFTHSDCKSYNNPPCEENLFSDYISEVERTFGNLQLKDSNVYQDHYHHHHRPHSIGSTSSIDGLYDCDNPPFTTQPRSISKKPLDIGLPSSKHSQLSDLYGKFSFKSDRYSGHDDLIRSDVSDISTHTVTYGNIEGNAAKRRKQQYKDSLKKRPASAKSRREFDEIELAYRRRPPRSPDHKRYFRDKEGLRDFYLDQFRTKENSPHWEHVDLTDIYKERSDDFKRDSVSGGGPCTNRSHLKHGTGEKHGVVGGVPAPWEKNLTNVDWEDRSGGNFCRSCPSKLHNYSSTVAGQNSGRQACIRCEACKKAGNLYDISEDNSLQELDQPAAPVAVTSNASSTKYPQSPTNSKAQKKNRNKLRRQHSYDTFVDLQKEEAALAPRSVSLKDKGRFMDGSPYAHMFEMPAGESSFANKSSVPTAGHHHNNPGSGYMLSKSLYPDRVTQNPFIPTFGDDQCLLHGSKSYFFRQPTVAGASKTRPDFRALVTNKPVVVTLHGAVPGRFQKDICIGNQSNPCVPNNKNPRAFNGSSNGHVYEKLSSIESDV
compound,measurement,setting,value
"O=C1C(N2CCC(c3ccc(O)cc3)CC2)CON1Cc1ccc(F)cc1 (single isomer, unassigned) [Example 1, P-1, 2-(4-fluorobenzyl)-4-(4-(4-hydroxyphenyl)piperidin-1-yl)isoxazolidin-3-one]",Ki,"P-1, read-out: NR2B Binding Ki",305 nM
"O=C1C(N2CCC(c3ccc(O)cc3)CC2)CON1Cc1ccc(F)cc1 (single isomer, unassigned) [Example 1, P-2, 2-(4-fluorobenzyl)-4-(4-(4-hydroxyphenyl)piperidin-1-yl)isoxazolidin-3-one]",Ki,"listed as 1, P-2, read-out: NR2B Binding Ki",4.08 nM
"Cc1ccc(CN2OCC(N3CCC(c4ccc(O)cc4)CC3)C2=O)cc1 (single isomer, unassigned) [Example 2, P-1, 4-(4-(4-hydroxyphenyl)piperidin-1-yl)-2-(4-methylbenzyl)isoxazolidin-3-one]",Ki,"listed as 2, P-1, read-out: NR2B Binding Ki",112 nM
"Cc1ccc(CN2OCCC(N3CC[C@@H](c4ccc(O)cc4)[C@H](F)C3)C2=O)cc1 (single isomer, unassigned) [Example 5, P-1]",Ki,"listed as 5, P-1, read-out: NR2B Binding Ki",144 nM
"Cc1ccc(CN2OCCC(N3CC[C@@H](c4ccc(O)cc4)[C@H](F)C3)C2=O)cc1 (single isomer, unassigned) [Example 5, P-2]",Ki,"listed as 5, P-2, read-out: NR2B Binding Ki",4.37 nM
"Cc1ccc(CN2OCCC(N3CCC(c4ccc(O)cn4)CC3)C2=O)cc1 (single isomer, unassigned) [Example 6, P-1, 4-(4-(5-hydroxypyridin-2-yl)piperidin-1-yl)-2-(4-methylbenzyl)-1,2-oxazinan-3-one]",Ki,"listed as 6, P-1, read-out: NR2B Binding Ki",6.53 nM
"Cc1ccc(CN2OCCC(N3CCC(c4ccc(O)cn4)CC3)C2=O)cc1 (single isomer, unassigned) [Example 6, P-2, 4-(4-(5-hydroxypyridin-2-yl)piperidin-1-yl)-2-(4-methylbenzyl)-1,2-oxazinan-3-one]",Ki,"listed as 6, P-2, read-out: NR2B Binding Ki",8.16 nM
"Cc1ccc(CN2OCCC(N3CC[C@H](c4ccc(O)cc4)[C@@H](F)C3)C2=O)cc1 (single isomer, unassigned) [Example 7, P-1]",Ki,"listed as 7, P-1, read-out: NR2B Binding Ki",125 nM
"Cc1ccc(CN2OCCC(N3CC[C@H](c4ccc(O)cc4)[C@@H](F)C3)C2=O)cc1 (single isomer, unassigned) [Example 7, P-2]",Ki,"listed as 7, P-2, read-out: NR2B Binding Ki",4.98 nM
"Cc1ccc(CN2OCCC(N3CCN(c4ccc(O)cn4)CC3)C2=O)cc1 (single isomer, unassigned) [Example 8, P-1, 4-(4-(5-hydroxypyridin-2-yl)piperazin-1-yl)-2-(4-methylbenzyl)-1,2-oxazinan-3-one]",Ki,"listed as 8, P-1, read-out: NR2B Binding Ki",57.8 nM
"Cc1ccc(CN2OCCC(N3CCN(c4ccc(O)cn4)CC3)C2=O)cc1 (single isomer, unassigned) [Example 8, P-2, 4-(4-(5-hydroxypyridin-2-yl)piperazin-1-yl)-2-(4-methylbenzyl)-1,2-oxazinan-3-one]",Ki,"listed as 8, P-2, read-out: NR2B Binding Ki",18.8 nM
"Cc1ccc(CN2OCC(N3CCC(c4ccc(O)cn4)CC3)C2=O)cc1 (single isomer, unassigned) [Example 9, P-1, 4-(4-(5-hydroxypyridin-2-yl)piperidin-1-yl)-2-(4-methylbenzyl)isoxazolidin-3-one]",Ki,"listed as 9, P-1, read-out: NR2B Binding Ki",139 nM
"Cc1ccc(CN2OCC(N3CCC(c4ccc(O)cn4)CC3)C2=O)cc1 (single isomer, unassigned) [Example 9, P-2, 4-(4-(5-hydroxypyridin-2-yl)piperidin-1-yl)-2-(4-methylbenzyl)isoxazolidin-3-one]",Ki,"listed as 9, P-2, read-out: NR2B Binding Ki",12.1 nM
"Cc1ccc(CN2OCC(N3CCN(c4ccc(O)cn4)CC3)C2=O)cc1 (single isomer, unassigned) [Example 10, P-2, 4-(4-(5-hydroxypyridin-2-yl)piperazin-1-yl)-2-(4-methylbenzyl)isoxazolidin-3-one]",Ki,"listed as 10, P-2, read-out: NR2B Binding Ki",10.7 nM
"Cc1ccc(CN2OCCC(N3CCC(c4ccc(O)c(F)c4)C(F)C3)C2=O)cc1 (single isomer, unassigned) [Example 11, P-1, 4-(3-fluoro-4-(3-fluoro-4-hydroxyphenyl)piperidin-1-yl)-2-(4-methylbenzyl)-1,2-oxazinan-3-one]",Ki,"listed as 11, P-1, read-out: NR2B Binding Ki",3.06 nM
"Cc1ccc(CN2OCCC(N3CCC(c4ccc(O)c(F)c4)C(F)C3)C2=O)cc1 (single isomer, unassigned) [Example 11, P-2, 4-(3-fluoro-4-(3-fluoro-4-hydroxyphenyl)piperidin-1-yl)-2-(4-methylbenzyl)-1,2-oxazinan-3-one]",Ki,"listed as 11, P-2, read-out: NR2B Binding Ki",39.3 nM
"O=C1C(N2CC[C@@H](c3ccc(O)cc3)[C@H](F)C2)CCON1Cc1ccc(Cl)cc1 (single isomer, unassigned) [Example 12, P-1]",Ki,"listed as 12, P-1, read-out: NR2B Binding Ki",3.9 nM
"O=C1C(N2CC[C@@H](c3ccc(O)cc3)[C@H](F)C2)CCON1Cc1ccc(Cl)cc1 (single isomer, unassigned) [Example 12, P-2]",Ki,"listed as 12, P-2, read-out: NR2B Binding Ki",150 nM
"O=C1C(N2CCC(c3ccc(O)c(F)c3)C(F)C2)CCON1Cc1ccc(F)cc1 (single isomer, unassigned) [Example 13, P-1, 4-(3-fluoro-4-(3-fluoro-4-hydroxyphenyl)piperidin-1-yl)-2-(4-fluorobenzyl)-1,2-oxazinan-3-one]",Ki,"listed as 13, P-1, read-out: NR2B Binding Ki",367 nM
"O=C1C(N2CCC(c3ccc(O)c(F)c3)C(F)C2)CCON1Cc1ccc(F)cc1 (single isomer, unassigned) [Example 13, P-2, 4-(3-fluoro-4-(3-fluoro-4-hydroxyphenyl)piperidin-1-yl)-2-(4-fluorobenzyl)-1,2-oxazinan-3-one]",Ki,"listed as 13, P-2, read-out: NR2B Binding Ki",4.03 nM
"O=C1C(N2CCC(c3ccc(O)c(F)c3)C(F)C2)CCON1Cc1ccc(Cl)cc1 (single isomer, unassigned) [Example 14, P-1, 2-(4-chlorobenzyl)-4-(3-fluoro-4-(3-fluoro-4-hydroxyphenyl)piperidin-1-yl)-1,2-oxazinan-3-one]",Ki,"listed as 14, P-1, read-out: NR2B Binding Ki",98.7 nM
"O=C1C(N2CCC(c3ccc(O)c(F)c3)C(F)C2)CCON1Cc1ccc(Cl)cc1 (single isomer, unassigned) [Example 14, P-2, 2-(4-chlorobenzyl)-4-(3-fluoro-4-(3-fluoro-4-hydroxyphenyl)piperidin-1-yl)-1,2-oxazinan-3-one]",Ki,"listed as 14, P-2, read-out: NR2B Binding Ki",2.8 nM
"O=C1C(N2CC[C@@H](c3ccc(O)cc3)[C@H](F)C2)CCON1Cc1ccc(F)cc1 (single isomer, unassigned) [Example 15, P-1]",Ki,"listed as 15, P-1, read-out: NR2B Binding Ki",393 nM
"O=C1C(N2CC[C@@H](c3ccc(O)cc3)[C@H](F)C2)CCON1Cc1ccc(F)cc1 (single isomer, unassigned) [Example 15, P-2]",Ki,"listed as 15, P-2, read-out: NR2B Binding Ki",12.5 nM
